Assay results reported in patent publication US20090143368A1, “Use of Cinnamoyl Compound” (priority 2005, published 2009).

Test system: transcription regulatory region for a human-derived Type I collagen α2 chain gene
Experiment: TGF-β-promoted transcription of a Type I collagen gene, COL-Luc luciferase reporter assay
Assay type: cell-based
Details: compound final concentration 1 μM; normal human fetal skin fibroblast transfected with COL-Luc; TGF-β added, 40 hours; read-out: Inhibition percentage of the ability of TGF-β to promote transcription of a Type I collagen gene
Description: 1×10^8 cells of a normal human fetal skin fibroblast (Clontech, catalogue No. CC-2509) were cultured at 37° C. overnight under 5% CO2 atmosphere. After the cultured cells were washed with a sodium phosphate buffer (hereinafter, referred to as PBS) twice, 3 ml of PBS was added thereto and the cells were scraped away the wall of a vessel using a cell scraper (Nalgen, catalogue No. 179693). The scraped cells were collected by centrifugation (1,500 rpm, 4° C., 15 min), and these were suspended in 20 ml of PBS and centrifuged again. To the resulting precipitates were added 11 ml of Solution 2 and 4.8 μl of pronase of DNA Extraction Kit (Stratagene, catalogue No. 200600). After shaken at 60° C. for 1 hour, the resulting mixture was allowed to stand in ice for 10 minutes. Then, 4 ml of Solution 3 of the kit was added to the mixture. After mixed, the mixture was allowed to stand in ice for 5 minutes and then centrifuged (3,000 rpm, 4° C., 15 min) to recover a supernatant. To the recovered supernatant was added 2 μl of RNase per 1 ml of the supernatant and the mixture was allowed to stand at 37° C. for 15 minutes. To the mixture was added 2-fold volume of ethanol. After mixed, a white thread-like substance (genomic DNA) appeared and the substance was recovered. The recovered genomic DNA was washed with 70% ethanol and then air-dried. The air-dried genomic DNA was dissolved in 500 μl of 10 mM Tris-HCl, 1 mM EDTA (pH 8.0) (hereinafter, referred to as TE).
The resulting genomic DNA-dissolved solution (genomic DNA 1 μg corresponding amount) was mixed with each 1 μl of an oligonucleotide consisting of a base sequence represented by SEQ ID No.: 1 (SEQ ID No. 1: an oligonucleotide primer designed to amplify a collagen promoter DNA: ccaagctagc gaaattatct tttctttcat ag 32) and an oligonucleotide ([…]) consisting of a base sequence represented by SEQ ID No.:2 (SEQ ID No. 2: an oligonucleotide primer designed to amplify a collagen promoter DNA: ccaaaagctt gcagtcgtgg ccagtacc 28), 29 μl of distilled water, 5 μl of a buffer attached to TaKaRa LA Taq (TAKARA SHUZO Co., Ltd., catalogue No. RR002A), 5 μl of a Mg^2+ solution, 5 μl of a dNTP mixture and 0.5 μl of TaKaRa LA Taq (TAKARA SHUZO Co., Ltd., catalogue No. RR002A). After the resulting mixed solution was incubated at 94° C. for 5 minutes, the mixed solution was subjected to 30 cycles, in which one cycle consists of incubation at 94° C. for 1 minute, at 60° C. for 1 minute and then at 72° C. for 1 minute. The mixed solution was electrophoresed on a 2% agarose gel to recover about 0.5 kb of a DNA. The recovered DNA was treated with phenol/chloroform and then precipitated with ethanol to recover the DNA. The resulting DNA was dissolved in ultrapure water. To this solution were added 2.5 μl of NheI and 2.5 μl of HindIII, and then incubated at 37° C. for 3 hours. Then, the solution was electrophoresed on a 2% agarose gel to recover about 3.5 kb of a DNA. The recovered DNA was precipitated with ethanol to recover again the DNA (hereinafter, referred to as the collagen promoter DNA).
On the other hand, the vector pGL3 (Promega, catalogue No. E1751) having the nucleotide sequence encoding firefly luciferase was digested with NheI and HindIII, and then subjected to agarose gel electrophoresis as described above to recover about 5 kb of a DNA. The recovered DNA was precipitated with ethanol to recover the DNA again. To the recovered DNA were added 44 μl of distilled water, 5 μl of Buffer attached to Alkaline Phosphatase (TAKARA SHUZO, catalogue No. 2120A) and 1 μl of Alkaline Phosphatase (TAKARA SHUZO, catalogue No. 2120A). The mixed solution was incubated at 65° C. for 30 minutes. Then, the mixed solution was treated with phenol/chloroform twice, and precipitated with ethanol to recover the DNA (hereinafter referred to as the Luc vector DNA). […]

SMILES | inhibition at 1 µM
COCC(=O)Nc1cccc(C=CC(=O)C2=C(O)c3ccccc3S(=O)(=O)N2C)c1 [(5b), 4-hydroxy-3-[3-[3-(methoxyacetylamino)phenyl]acryloyl]-2-methyl-2H-1,2-benzothiazine-1,1-dioxide] | ≥ 70%
CN1C(C(=O)C=Cc2cccc(OCCO)c2)=C(O)c2ccccc2S1(=O)=O [(16b), 4-hydroxy-3-[3-[3-(2-hydroxyethoxy)phenyl]acryloyl]-2-methyl-2H-1,2-benzothiazine-1,1-dioxide] | ≥ 70%
COCCNC(=O)c1cccc(C=CC(=O)c2c[nH]c3ccccc3c2=O)c1 [(23c), 3-[3-[3-[(2-methoxyethyl)aminocarbonyl]phenyl}acryloyl]-4(1H)-quinolinone] | ≥ 70%

Same assay, conditions: compound final concentration 3 μM; normal human fetal skin fibroblast transfected with COL-Luc; TGF-β added, 40 hours; read-out: Inhibition percentage of the ability of TGF-β to promote transcription of a Type I collagen gene

SMILES | inhibition at 3 µM
COC(=O)COc1cccc(C=CC(=O)C2=C(O)c3ccccc3S(=O)(=O)N2C)c1 [(1b), 4-hydroxy-3-[3-[3-[(methoxycarbonyl)methoxy]phenyl]acryloyl]-2-methyl-2H-1,2-benzothiazine-1,1-dioxide] | ≥ 70%
COCCNC(=O)c1cccc(C=CC(=O)C2=C(O)c3ccccc3S(=O)(=O)N2C)c1 [(10b), 4-hydroxy-3-[3-[3-[(2-methoxyethyl)aminocarbonyl]phenyl}acryloyl]-2-methyl-2H-1,2-benzothiazine-1,1-dioxide] | ≥ 70%
COC(=O)CNC(=O)c1cccc(C=CC(=O)C2=C(O)c3ccccc3S(=O)(=O)N2C)c1 [(13b), 4-hydroxy-3-[3-[3-[[(methoxycarbonylmethyl)amino]carbonyl]phenyl}acryloyl]-2-methyl-2H-1,2-benzothiazine-1,1-dioxide] | ≥ 70%
COCC(=O)Nc1cccc(C=CC(=O)c2c(O)c3cccnc3n(C)c2=O)c1 [(19a), 4-hydroxy-1-methyl-3-[3-[3-(methoxyacetylamino)phenyl]acryloyl]-1H-[1,8]naphthyridin-2-one] | ≥ 70%
COCCNC(=O)c1cccc(C=CC(=O)c2cn(C)c3ccccc3c2=O)c1 [(24c), 3-[3-[3-[(2-methoxyethyl)aminocarbonyl]phenyl}acryloyl]-1-methyl-4(1H)-quinolinone] | ≥ 70%
COC(=O)CNC(=O)c1cccc(C=CC(=O)c2c(O)c3cccnc3n(C)c2=O)c1 [(29a), 4-hydroxy-1-methyl-3-[3-[3-[[(methoxycarbonylmethyl)amino]carbonyl]phenyl}acryloyl]-1H-[1,8]naphthyridin-2-one] | ≥ 70%
COCCNC(=O)c1cccc(C=CC(=O)c2c(O)c3cccnc3[nH]c2=O)c1 [(31a), 4-hydroxy-3-[3-[3-[(2-methoxyethyl)aminocarbonyl]phenyl}acryloyl]-1H-[1,8]naphthyridin-2-one] | ≥ 70%
COCCNC(=O)c1cccc(C=CC(=O)c2c(O)c3cccnc3n(C)c2=O)c1 [(32a), 4-hydroxy-1-methyl-3-[3-[3-[(2-methoxyethyl)aminocarbonyl]phenyl}acryloyl]-1H-[1,8]naphthyridin-2-one] | ≥ 70%
COC(=O)COc1cccc(C=CC(=O)c2c(O)c3cccnc3n(C)c2=O)c1 [(36a), 4-hydroxy-1-methyl-3-[3-[3-[(methoxycarbonyl)methoxy]phenyl]acryloyl]-1H-[1,8]naphthyridin-2-one] | ≥ 70%
Cn1c(=O)c(C(=O)C=Cc2cccc(OCCO)c2)c(O)c2cccnc21 [(40a), 4-hydroxy-1-methyl-3-[3-[3-(2-hydroxyethoxy)phenyl]acryloyl]-1H-[1,8]naphthyridin-2-one] | ≥ 70%
COCCOC(=O)Nc1cccc(C=CC(=O)c2c(O)c3cccnc3n(C)c2=O)c1 [(42a), 4-hydroxy-1-methyl-3-[3-[3-[(2-methoxyethoxy)carbonylamino]phenyl]acryloyl]-1H-[1,8]naphthyridin-2-one] | ≥ 70%

Same assay, conditions: compound final concentration 10 μM; normal human fetal skin fibroblast transfected with COL-Luc; TGF-β added, 40 hours; read-out: Inhibition percentage of the ability of TGF-β to promote transcription of a Type I collagen gene

SMILES | inhibition at 10 µM
COC(=O)COc1cccc(C=CC(=O)c2ccc(C)[nH]c2=O)c1 [(11c), 3-[3-[3-[(methoxycarbonyl)methoxy]phenyl]-1-oxo-2-propenyl]-6-methyl-2(1H)-pyridinone] | ≥ 70%
Cc1ccc(C(=O)/C=C/c2cccc(OCCO)c2)c(=O)[nH]1 [(16c), 3-[3-[3-(2-hydroxyethoxy)phenyl]-1-oxo-2-propenyl]-6-methyl-2(1H)-pyridinone] | ≥ 70%
COCC(=O)Nc1ccc(C=CC(=O)c2c(O)c3cccnc3n(C)c2=O)cc1 [(20a), 4-hydroxy-1-methyl-3-[3-[4-(methoxyacetylamino)phenyl]acryloyl]-1H-[1,8]naphthyridin-2-one] | ≥ 70%
CN(C)CCOc1cccc(C=CC(=O)c2c(O)c3cccnc3n(C)c2=O)c1 [(56a), 4-hydroxy-1-methyl-3-[3-[3-(2-dimethylaminoethoxy)phenyl]acryloyl]-1H-[1,8]naphthyridin-2-one] | ≥ 70%
COCCNC(=O)c1cccc(/C=C/C(=O)c2c(O)c3cccnc3n(C)c2=O)n1 [(124a), 4-hydroxy-1-methyl-3-[3-[6-(2-methoxyethyl)aminocarbonyl-2-pyridinyl]acryloyl]-1H-[1,8]naphthyridin-2-one] | ≥ 70%
